Source: PMC11425660, “[^186Re]Re- and [^99mTc]Tc-Tricarbonyl Metal Complexes with 1,4,7-Triazacyclononane-Based Chelators Bearing Amide, Alcohol, or Ketone Pendent Groups” (ACS Omega, 2024)

How the values were obtained:
[1] = storage stability (observation); assay type: physicochemical
[2] = solubility in solvents (observation); assay type: physicochemical; settings: solvents as named in the value

SMILES | storage stability ([1]; stored at 4 °C) | solubility [2] | storage stability ([1]; room temperature)
NC(=O)CN1CCN(CC(N)=O)CCN(CC(=O)NCc2ccccc2)CC1 [Chelator 2, 2,2′-(7-(2-(Benzylamino)-2-oxoethyl)-1,4,7-triazonane-1,4-diyl)diacetamide] | stable when stored at 4 °C for several weeks | soluble in water, methanol, acetonitrile, and dimethyl sulfoxide | –
O=C(CN1CCN(CCO)CCN(CCO)CC1)NCc1ccccc1 [Chelator 3, N-Benzyl-2-(4,7-bis(2-hydroxyethyl)-1,4,7,-triazonan-1-yl)acetamide] | stable when stored at 4 °C for several weeks | soluble in water, methanol, acetonitrile, and dimethyl sulfoxide | –
CC(=O)CN1CCN(CC(C)=O)CCN(CC(=O)NCc2ccccc2)CC1 [Chelator 4, N-Benzyl-2-(4,7-bis(2-oxopropyl)-1,4,7-triazonan-1-yl)acetamide] | stable at 4 °C for several weeks | soluble in dimethyl sulfoxide | –
O=C(O)CN1CCN(CC(=O)O)CCN(CC(=O)NCc2ccccc2)CC1 [Chelator 5, 2,2′-(7-(2-(Benzylamino)-2-oxoethyl)-1,4,7-triazonane-1,4-diyl)diacetic Acid] | – | soluble in water, methanol, acetonitrile, and dimethyl sulfoxide | stable at room temperature for several months
